How the values were obtained:
[1] = target: T1, Metabotropic glutamate receptor 5 (Homo sapiens, UniProt P41594); assay: Antagonist activity at mGlu5 receptor (unknown origin) expressed in HEK cells assessed as inhibition of glutamate-induced calcium flux at 1 uM by fluorescence based assay; format: functional, cell-based; conditions: HEK293
Target sequence in this assay (P41594 21-1212 limits assumed): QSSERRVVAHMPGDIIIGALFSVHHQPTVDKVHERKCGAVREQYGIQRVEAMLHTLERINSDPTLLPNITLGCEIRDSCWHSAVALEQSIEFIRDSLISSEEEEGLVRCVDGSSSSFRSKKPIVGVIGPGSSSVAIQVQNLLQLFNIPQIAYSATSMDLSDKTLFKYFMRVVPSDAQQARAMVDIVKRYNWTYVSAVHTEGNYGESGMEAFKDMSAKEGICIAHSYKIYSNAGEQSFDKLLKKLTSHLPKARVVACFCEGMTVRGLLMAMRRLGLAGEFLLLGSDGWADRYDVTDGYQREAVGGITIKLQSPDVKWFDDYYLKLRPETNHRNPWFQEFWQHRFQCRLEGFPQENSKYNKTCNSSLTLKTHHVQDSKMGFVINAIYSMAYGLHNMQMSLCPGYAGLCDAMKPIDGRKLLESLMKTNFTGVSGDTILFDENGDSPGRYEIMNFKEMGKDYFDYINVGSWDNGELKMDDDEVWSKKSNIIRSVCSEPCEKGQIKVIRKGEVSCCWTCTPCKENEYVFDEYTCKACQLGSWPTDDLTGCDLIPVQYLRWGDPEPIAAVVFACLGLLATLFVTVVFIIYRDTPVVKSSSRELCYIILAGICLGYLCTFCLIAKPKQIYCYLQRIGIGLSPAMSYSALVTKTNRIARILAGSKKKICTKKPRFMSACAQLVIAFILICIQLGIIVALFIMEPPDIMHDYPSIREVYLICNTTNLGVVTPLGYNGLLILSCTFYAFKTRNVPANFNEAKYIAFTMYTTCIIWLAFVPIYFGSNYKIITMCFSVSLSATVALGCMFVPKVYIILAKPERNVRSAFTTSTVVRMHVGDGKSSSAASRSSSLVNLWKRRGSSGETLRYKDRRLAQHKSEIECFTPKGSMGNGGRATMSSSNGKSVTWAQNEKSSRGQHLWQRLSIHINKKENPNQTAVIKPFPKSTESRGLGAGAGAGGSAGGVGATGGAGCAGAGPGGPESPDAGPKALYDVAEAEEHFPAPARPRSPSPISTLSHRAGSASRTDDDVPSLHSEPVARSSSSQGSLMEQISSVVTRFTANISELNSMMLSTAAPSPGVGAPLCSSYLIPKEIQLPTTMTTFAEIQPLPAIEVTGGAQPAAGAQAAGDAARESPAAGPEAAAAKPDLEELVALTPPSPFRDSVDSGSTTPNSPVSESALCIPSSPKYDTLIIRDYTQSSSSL

[2] = target: T1, Metabotropic glutamate receptor 5; assay: Antagonist activity at mGlu5 receptor (unknown origin) expressed in HEK cells assessed as inhibition of glutamate-induced calcium flux at 10 uM by fluorescence based assay; format: functional, cell-based; conditions: HEK293
Target sequence in this assay (P41594 21-1212 limits assumed): as above

[3] = target: T1, Metabotropic glutamate receptor 5; assay: Antagonist activity at mGlu5 receptor (unknown origin) expressed in HEK cells assessed as inhibition of glutamate-induced calcium flux by fluorescence based assay; format: functional, cell-based, HEK293
Target sequence in this assay (P41594 whole entry): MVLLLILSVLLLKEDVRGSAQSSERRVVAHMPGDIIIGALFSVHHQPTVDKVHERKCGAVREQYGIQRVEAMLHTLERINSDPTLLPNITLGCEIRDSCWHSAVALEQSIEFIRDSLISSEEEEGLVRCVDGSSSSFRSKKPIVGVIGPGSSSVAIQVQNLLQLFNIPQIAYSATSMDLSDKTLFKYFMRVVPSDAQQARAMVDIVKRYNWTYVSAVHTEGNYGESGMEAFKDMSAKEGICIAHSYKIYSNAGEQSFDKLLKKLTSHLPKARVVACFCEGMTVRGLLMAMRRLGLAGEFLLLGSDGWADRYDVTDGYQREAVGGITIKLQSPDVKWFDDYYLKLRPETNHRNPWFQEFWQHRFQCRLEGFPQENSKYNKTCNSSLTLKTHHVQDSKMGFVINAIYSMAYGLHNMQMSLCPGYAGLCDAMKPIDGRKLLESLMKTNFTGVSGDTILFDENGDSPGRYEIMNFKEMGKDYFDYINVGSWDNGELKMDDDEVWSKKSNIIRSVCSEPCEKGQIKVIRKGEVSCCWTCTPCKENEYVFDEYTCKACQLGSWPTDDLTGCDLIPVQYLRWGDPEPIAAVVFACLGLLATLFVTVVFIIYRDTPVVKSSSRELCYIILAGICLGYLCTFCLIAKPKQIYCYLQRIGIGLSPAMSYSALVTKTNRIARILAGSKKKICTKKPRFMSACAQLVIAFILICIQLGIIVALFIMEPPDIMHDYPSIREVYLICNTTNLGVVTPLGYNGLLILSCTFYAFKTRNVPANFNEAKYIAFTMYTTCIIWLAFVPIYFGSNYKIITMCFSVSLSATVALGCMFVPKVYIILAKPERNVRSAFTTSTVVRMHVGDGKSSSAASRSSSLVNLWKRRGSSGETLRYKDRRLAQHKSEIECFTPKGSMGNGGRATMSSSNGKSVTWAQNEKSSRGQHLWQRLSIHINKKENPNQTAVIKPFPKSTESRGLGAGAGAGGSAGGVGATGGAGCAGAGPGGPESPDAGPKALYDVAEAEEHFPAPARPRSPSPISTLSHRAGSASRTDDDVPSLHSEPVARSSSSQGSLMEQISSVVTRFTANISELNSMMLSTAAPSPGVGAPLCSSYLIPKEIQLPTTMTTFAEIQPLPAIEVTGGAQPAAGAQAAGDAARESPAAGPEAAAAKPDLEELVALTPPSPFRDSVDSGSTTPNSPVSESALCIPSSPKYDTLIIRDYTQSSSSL

CYP1A2 = target: T2, CYP1A2 (Homo sapiens, UniProt P05177); assay: Inhibition of human CYP1A2 assessed as remaining activity at 10 uM; format: ADME; conditions: read-out: Activity
T2 sequence (P05177 whole entry): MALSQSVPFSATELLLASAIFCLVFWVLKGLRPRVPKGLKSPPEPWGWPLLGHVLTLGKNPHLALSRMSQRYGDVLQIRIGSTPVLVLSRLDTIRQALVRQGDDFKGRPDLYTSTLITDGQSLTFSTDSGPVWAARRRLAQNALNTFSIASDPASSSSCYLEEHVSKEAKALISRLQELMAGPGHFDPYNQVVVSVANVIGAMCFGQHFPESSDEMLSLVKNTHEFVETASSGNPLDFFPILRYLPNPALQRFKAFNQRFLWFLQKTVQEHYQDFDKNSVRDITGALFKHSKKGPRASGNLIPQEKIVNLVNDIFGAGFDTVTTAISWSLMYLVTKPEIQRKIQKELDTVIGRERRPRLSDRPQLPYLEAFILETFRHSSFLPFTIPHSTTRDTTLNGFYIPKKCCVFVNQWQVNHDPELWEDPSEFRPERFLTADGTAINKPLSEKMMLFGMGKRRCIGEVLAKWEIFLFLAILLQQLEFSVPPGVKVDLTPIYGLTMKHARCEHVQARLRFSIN

hERG (KCNH2) [4] = target: T3, hERG (KCNH2) (Homo sapiens, UniProt Q12809); assay: Inhibition of human ERG at 10 uM by patch-clamp method
hERG (KCNH2) [5] = target: T3, hERG (KCNH2); assay: Inhibition of human ERG at 1 uM by patch-clamp method
hERG (KCNH2) [6] = target: T3, hERG (KCNH2); assay: Inhibition of human ERG at 0.1 uM by patch-clamp method
[7] = Metabolic stability in human liver microsomes assessed as compound remaining at 1 uM after 30 mins; format: ADME; conditions: read-out: Stability
CYP2D6 = CYP2D6 (Homo sapiens, UniProt P10635); assay: Inhibition of human CYP2D6 assessed as remaining activity at 10 uM; format: ADME; conditions: read-out: Activity
CYP2C9 = CYP2C9 (Homo sapiens, UniProt P11712); assay: Inhibition of human CYP2C9 assessed as remaining activity at 10 uM; format: ADME; conditions: read-out: Activity
CYP3A4 = CYP3A4 (Homo sapiens, UniProt P08684); assay: Inhibition of human CYP3A4 assessed as remaining activity at 10 uM; format: ADME; conditions: read-out: Activity
CYP2C19 = CYP2C19 (Homo sapiens, UniProt P33261); assay: Inhibition of human CYP2C19 assessed as remaining activity at 10 uM; format: ADME; conditions: read-out: Activity
Chain of CYP2C19 (P33261 whole entry): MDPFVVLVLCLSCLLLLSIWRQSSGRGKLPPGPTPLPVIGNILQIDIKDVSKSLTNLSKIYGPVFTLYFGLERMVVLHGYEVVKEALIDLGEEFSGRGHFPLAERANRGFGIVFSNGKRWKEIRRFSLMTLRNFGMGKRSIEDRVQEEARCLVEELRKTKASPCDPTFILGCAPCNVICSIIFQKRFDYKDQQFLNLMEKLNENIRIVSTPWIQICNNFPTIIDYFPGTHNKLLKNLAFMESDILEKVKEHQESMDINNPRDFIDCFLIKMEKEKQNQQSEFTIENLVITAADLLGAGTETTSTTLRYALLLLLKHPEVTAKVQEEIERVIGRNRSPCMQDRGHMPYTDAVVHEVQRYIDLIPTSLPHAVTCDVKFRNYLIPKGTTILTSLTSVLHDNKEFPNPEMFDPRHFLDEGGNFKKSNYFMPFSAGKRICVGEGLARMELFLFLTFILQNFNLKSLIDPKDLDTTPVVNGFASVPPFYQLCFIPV

T3 sequence (Q12809 whole entry): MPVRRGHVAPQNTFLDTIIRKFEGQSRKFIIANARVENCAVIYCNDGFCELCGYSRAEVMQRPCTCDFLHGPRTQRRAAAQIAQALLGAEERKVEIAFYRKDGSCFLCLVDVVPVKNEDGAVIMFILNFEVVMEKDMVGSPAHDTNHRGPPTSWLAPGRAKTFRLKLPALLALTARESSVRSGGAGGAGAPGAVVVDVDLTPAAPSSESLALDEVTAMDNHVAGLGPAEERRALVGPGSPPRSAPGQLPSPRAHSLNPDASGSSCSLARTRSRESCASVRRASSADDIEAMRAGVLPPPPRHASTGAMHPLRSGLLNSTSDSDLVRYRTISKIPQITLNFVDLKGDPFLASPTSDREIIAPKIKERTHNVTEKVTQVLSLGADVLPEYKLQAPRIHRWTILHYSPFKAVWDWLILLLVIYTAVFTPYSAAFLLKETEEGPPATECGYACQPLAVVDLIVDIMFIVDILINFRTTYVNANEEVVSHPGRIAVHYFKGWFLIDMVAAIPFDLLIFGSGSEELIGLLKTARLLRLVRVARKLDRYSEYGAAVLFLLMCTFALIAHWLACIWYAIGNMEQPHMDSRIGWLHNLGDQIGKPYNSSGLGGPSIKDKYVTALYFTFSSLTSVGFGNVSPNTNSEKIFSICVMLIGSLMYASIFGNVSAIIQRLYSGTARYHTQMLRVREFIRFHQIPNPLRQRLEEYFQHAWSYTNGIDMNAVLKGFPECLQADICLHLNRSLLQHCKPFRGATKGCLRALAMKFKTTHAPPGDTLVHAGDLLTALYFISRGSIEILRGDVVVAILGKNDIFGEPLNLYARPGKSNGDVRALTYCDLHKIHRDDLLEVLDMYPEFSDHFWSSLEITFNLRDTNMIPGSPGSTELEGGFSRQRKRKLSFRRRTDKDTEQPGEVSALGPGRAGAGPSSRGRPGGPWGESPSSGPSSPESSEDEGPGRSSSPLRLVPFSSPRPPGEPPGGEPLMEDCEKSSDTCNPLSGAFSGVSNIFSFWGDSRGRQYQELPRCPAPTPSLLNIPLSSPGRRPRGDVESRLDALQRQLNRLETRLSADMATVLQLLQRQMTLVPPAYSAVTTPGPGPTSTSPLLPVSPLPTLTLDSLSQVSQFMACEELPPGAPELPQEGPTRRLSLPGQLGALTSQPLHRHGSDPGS
Chain of CYP2D6 (P10635 whole entry): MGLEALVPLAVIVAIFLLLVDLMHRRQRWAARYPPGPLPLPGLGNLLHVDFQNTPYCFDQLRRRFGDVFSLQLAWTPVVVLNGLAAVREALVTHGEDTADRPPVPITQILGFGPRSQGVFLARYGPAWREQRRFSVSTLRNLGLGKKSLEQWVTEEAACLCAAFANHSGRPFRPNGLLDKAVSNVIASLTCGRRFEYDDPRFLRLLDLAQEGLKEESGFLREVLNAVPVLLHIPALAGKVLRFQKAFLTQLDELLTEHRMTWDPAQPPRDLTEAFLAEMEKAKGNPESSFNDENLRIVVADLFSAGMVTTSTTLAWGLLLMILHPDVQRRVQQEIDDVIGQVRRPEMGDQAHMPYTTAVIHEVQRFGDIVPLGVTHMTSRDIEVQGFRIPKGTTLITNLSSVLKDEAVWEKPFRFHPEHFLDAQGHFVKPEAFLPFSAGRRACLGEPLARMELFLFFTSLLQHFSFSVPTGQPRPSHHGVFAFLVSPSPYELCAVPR
Chain of CYP3A4 (P08684 whole entry): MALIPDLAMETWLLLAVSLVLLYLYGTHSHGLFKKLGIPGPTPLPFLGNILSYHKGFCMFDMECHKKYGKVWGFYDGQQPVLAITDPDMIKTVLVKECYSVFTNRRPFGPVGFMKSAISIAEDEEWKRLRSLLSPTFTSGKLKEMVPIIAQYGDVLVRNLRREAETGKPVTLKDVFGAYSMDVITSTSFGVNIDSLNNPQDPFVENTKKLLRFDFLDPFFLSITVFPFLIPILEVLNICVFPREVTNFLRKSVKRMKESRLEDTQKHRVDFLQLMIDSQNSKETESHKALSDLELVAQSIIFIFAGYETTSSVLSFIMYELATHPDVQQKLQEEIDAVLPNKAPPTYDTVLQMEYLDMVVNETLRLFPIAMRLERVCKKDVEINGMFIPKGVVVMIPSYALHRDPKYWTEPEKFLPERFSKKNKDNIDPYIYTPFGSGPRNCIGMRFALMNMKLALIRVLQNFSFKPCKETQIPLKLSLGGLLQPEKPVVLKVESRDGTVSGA

Row | SMILES | inhibition [1] [%] | inhibition [2] [%] | further results
1 | O=C(Nc1cccc(F)c1)c1nc(Br)cs1 | 13.7 | – | –
2 | Cc1csc(C(=O)Nc2ccccn2)n1 | 47.1 | – | –
3 | COc1cccc(C(=O)Nc2cccnc2)n1 | 22.8 | 23.1 | –
4 | Cc1csc(C(=O)Nc2cccc(Cl)n2)n1 | 45 | – | –
5 | Cc1cccc(NC(=O)c2nc(Br)cs2)n1 | 81 | – | IC50 [3]: 0.159 µM; activity at 10 µM (CYP1A2): 11%; inhibition at 10 µM (hERG (KCNH2) [4]): 34.8%; inhibition at 1 µM (hERG (KCNH2) [5]): 19.4%; inhibition at 0.1 µM (hERG (KCNH2) [6]): 15%; remaining at 0.5 h, 1 µM [7]: 7.25%; activity at 10 µM (CYP2D6): 99.2%; activity at 10 µM (CYP2C9): 88.2%; activity at 10 µM (CYP3A4): 87.3%; activity at 10 µM (CYP2C19): 7.4%
6 | Cc1cccc(NC(=O)c2nc(C)cs2)c1 | 11.6 | – | –
7 | N#Cc1csc(C(=O)Nc2cccc(Cl)n2)n1 | -9.4 | – | –
8 | N#Cc1csc(C(=O)Nc2cccc(F)n2)n1 | -0.4 | – | –
9 | Cc1csc(C(=O)Nc2cccc(F)c2)n1 | 3.1 | – | –
10 | O=C(Nc1ccccn1)c1ccccn1 | 34.5 | 65.5 | –
11 | N#Cc1cccc(NC(=O)c2nc(Br)cs2)n1 | 9.6 | – | –
12 | N#Cc1csc(C(=O)Nc2cccc(Br)c2)n1 | 19.5 | – | –
13 | Cc1cccc(NC(=O)c2nc(C)cs2)n1 | 50.1 | – | –
14 | COc1ccc(NC(=O)c2cccc(Cl)n2)cn1 | 18.5 | 43.4 | –
15 | N#Cc1cccc(NC(=O)c2nc(Br)cs2)c1 | -0.1 | – | –
16 | Cc1csc(C(=O)Nc2cccc(Cl)c2)n1 | 32.2 | – | –
17 | O=C(Nc1cccc(F)n1)c1nc(Br)cs1 | 27.6 | – | –
18 | N#Cc1csc(C(=O)Nc2cccc(Cl)c2)n1 | -7.3 | – | –
19 | Cc1cccc(NC(=O)c2nc(C#N)cs2)n1 | 24.7 | – | –
20 | O=C(Nc1ccc(Cl)nc1Cl)c1ccccn1 | 3.85 | 35.4 | –

Row | SMILES | inhibition [1] [%] | inhibition [2] [%] | further results
21 | Cc1ccnc(Cl)c1NC(=O)c1cccc(Cl)n1 | 15.7 | 18.6 | –
22 | N#Cc1cccc(NC(=O)c2cccc(F)n2)c1 | 3.2 | 34 | –
23 | COc1ccc(NC(=O)c2ccccn2)cn1 | 14 | 25.5 | –
24 | O=C(Nc1cc(Cl)cnc1Cl)c1ccccn1 | 13.8 | 51 | –
25 | Cc1cccc(C(=O)Nc2cccc(Cl)c2)n1 | 10.5 | 52.1 | –
26 | O=C(Nc1cccc(Br)c1)c1nc(Br)cs1 | 71.1 | – | IC50 [3]: 0.274 µM; activity at 10 µM (CYP1A2): 38.3%; inhibition at 10 µM (hERG (KCNH2) [4]): 39.6%; inhibition at 1 µM (hERG (KCNH2) [5]): 29.3%; inhibition at 0.1 µM (hERG (KCNH2) [6]): 16.3%; remaining at 0.5 h, 1 µM [7]: 37.3%; activity at 10 µM (CYP2D6): 102%; activity at 10 µM (CYP2C9): 99%; activity at 10 µM (CYP3A4): 84.9%; activity at 10 µM (CYP2C19): 86.3%
27 | O=C(Nc1cccc(Cl)c1)c1cccc(F)n1 | 13.1 | 33.4 | –
28 | Cc1csc(C(=O)Nc2cccc(Br)c2)n1 | 18 | – | –
29 | Cc1cccc(C(=O)Nc2cccc(C#N)c2)n1 | 18.4 | 68.1 | –
30 | N#Cc1cccc(NC(=O)c2nc(C#N)cs2)n1 | 8.3 | – | –
31 | O=C(Nc1ccc(Cl)cn1)c1ccccn1 | 16.2 | 30.7 | –
32 | Cc1cccc(NC(=O)c2nc(Br)cs2)c1 | 40.9 | – | –
33 | O=C(Nc1cccnc1)c1ccccn1 | 25.6 | 30.3 | –
34 | O=C(Nc1cccc(Cl)n1)c1nc(Br)cs1 | 60 | – | –
35 | O=C(Nc1cccc(Br)n1)c1nc(Br)cs1 | 19.8 | – | –
36 | Cc1csc(C(=O)Nc2cccc(C#N)c2)n1 | 16.6 | – | –
37 | O=C(Nc1cccc(Cl)c1)c1nc(Br)cs1 | 58.1 | – | –
38 | O=C(Nc1cccnc1)c1cccc(Cl)n1 | 19.1 | 33.4 | –
39 | Cc1ccnc(Cl)c1NC(=O)c1ccccn1 | 16.1 | 17.7 | –

— ChEMBL document CHEMBL3739386, “Synthesis and biological evaluation of picolinamides and thiazole-2-carboxamides as mGluR5 (metabotropic glutamate receptor 5) antagonists” (Bioorg Med Chem Lett, 2016)
